Source: patent US20240270762A1, “PENICILLIN-BINDING PROTEIN INHIBITORS” (priority 2021, published 2024)
≈ marks a conversion by molar mass, not a printed value. Like-named read-outs stand apart in the source and are kept apart here.

Tests used:
[1] = test system: B. pseudomallei Bp82; assay: microbe, parasite or virus in culture; assay type: cell-based; details: Burkholderia pseudomallei, BP82, read-out: Minimum inhibitory concentration, B. pseudomallei Bp82
[2] = test system: N. gonorrhoeae WHO M; assay: Liquid broth MIC in Fastidious broth; details: Neisseria gonorrhoeae
[3] = test system: N. gonorrhoeae CDC-0197; assay: Liquid broth MIC in Fastidious broth; details: Neisseria gonorrhoeae
[4] = target: T1, PBP2 from Neisseria gonorrhoeae (FA19) (Neisseria gonorrhoeae, UniProt P08149); assay: Bocillin-FL fluorescence polarization competition binding, N. gonorrhoeae PBP2; details: fluorescence polarization competition binding assay using Bocillin-FL, read-out: N. gonorrhoeae PBP2 Potency
T1 construct: made in house
In short: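 Fluorescence polarization competition with 0.1 μM Bocillin-FL (fluorescent penicillin V) against 0.25 μM N. gonorrhoeae FA19 PBP2 in 50 mM Hepes pH 8.0, 300 mM NaCl, 10% glycerol. Boronic acid inhibitors were preincubated with PBP, then Bocillin-FL was added and FP read (490/520 nm) up to 60 min. EC50 is the concentration halving PBP-bound Bocillin-FL.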

[5] = test system: E. coli ATCC 25922; assay: microbe, parasite or virus in culture; assay type: cell-based; details: Escherichia coli, ATCC25922, read-out: MIC E. coli 25922
[6] = test system: E. coli AG100; assay: microbe, parasite or virus in culture; assay type: cell-based; details: Escherichia coli, AG100, read-out: MIC E. coli AG100
[7] = test system: E. coli 901C; assay: microbe, parasite or virus in culture; assay type: cell-based; details: Escherichia coli, read-out: MIC E. coli 901C
[8] = test system: E. coli D22; assay: microbe, parasite or virus in culture; assay type: cell-based; details: Escherichia coli, D22, read-out: MIC E. coli D22
[9] = test system: E. coli AG100A; assay: Broth microdilution MIC in CAMHB; assay type: cell-based; details: Escherichia coli, read-out: MIC E. coli AG100A
[10] = test system: K. pneumoniae 848844; assay: microbe, parasite or virus in culture; assay type: cell-based; details: Klebsiella pneumoniae, 848844, read-out: MIC K. pneumoniae 848844
[11] = test system: K. pneumoniae UMM; assay: microbe, parasite or virus in culture; assay type: cell-based; details: Klebsiella pneumoniae, read-out: MIC K. pneumoniae UMM
[12] = test system: K. pneumoniae SI-117; assay: microbe, parasite or virus in culture; assay type: cell-based; details: Klebsiella pneumoniae, SI117, read-out: MIC K. pneumoniae SI-117
[13] = test system: P. aeruginosa ATCC 27853; assay: microbe, parasite or virus in culture; assay type: cell-based; details: Pseudomonas aeruginosa, ATCC27853, read-out: MIC P. aeruginosa ATCC 27853
[14] = test system: A. baumannii ATCC 19606; assay: microbe, parasite or virus in culture; assay type: cell-based; details: Acinetobacter baumannii, ATCC19606, read-out: MIC, A. baumannii ATCC 19606
[15] = test system: P. aeruginosa ATCC 35151; assay: microbe, parasite or virus in culture; assay type: cell-based; details: Pseudomonas aeruginosa, ATCC35151, read-out: MIC P. aeruginosa ATCC 35151
[16] = test system: P. aeruginosa (ΔmexAB-oprM); assay: Broth microdilution MIC in CAMHB; assay type: cell-based; details: Pseudomonas aeruginosa; read-out: MIC P. aeruginosa ΔmexAB-oprM
[17] = read-out: Minimum Inhibitory Concentration (MIC), N. gonorrhoeae WHO M
[18] = CDC0197, read-out: Minimum Inhibitory Concentration (MIC), N. gonorrhoeae CDC-0197

T1 sequence (P08149 whole entry): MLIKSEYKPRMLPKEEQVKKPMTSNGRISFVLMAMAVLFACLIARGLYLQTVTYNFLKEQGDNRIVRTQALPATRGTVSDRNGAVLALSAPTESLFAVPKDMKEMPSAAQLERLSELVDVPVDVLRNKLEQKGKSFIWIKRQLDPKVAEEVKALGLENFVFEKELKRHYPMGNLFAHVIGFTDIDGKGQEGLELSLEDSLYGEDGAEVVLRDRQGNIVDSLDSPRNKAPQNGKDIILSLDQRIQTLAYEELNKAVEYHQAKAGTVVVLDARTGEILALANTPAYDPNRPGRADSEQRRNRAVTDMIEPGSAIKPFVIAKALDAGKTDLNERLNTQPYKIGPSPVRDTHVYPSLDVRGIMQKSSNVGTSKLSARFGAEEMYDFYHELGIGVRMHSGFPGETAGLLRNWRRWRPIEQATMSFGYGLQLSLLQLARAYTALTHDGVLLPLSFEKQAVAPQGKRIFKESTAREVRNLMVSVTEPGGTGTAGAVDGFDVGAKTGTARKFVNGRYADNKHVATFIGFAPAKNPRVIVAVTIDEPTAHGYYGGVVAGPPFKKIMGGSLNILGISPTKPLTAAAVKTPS

| SMILES | MIC [1] | MIC ([2]; read-out: Minimum Inhibitory Concentration, WHO M) | MIC ([3]; CDC0197, read-out: Minimum Inhibitory Concentration, CDC-0197) | EC50 [4] | MIC [5] | MIC [6] | MIC [7] | MIC [8] | MIC [9] | MIC [10] | MIC [11] | MIC [12] | MIC [13] | MIC [14] | MIC [15] | MIC [16] | MIC [2, 17] | MIC [3, 18] |
| --- | --- | --- | --- | --- | --- | --- | --- | --- | --- | --- | --- | --- | --- | --- | --- | --- | --- | --- |
| O=C(NCCN1CCN(C(=O)N[C@@H](C(=O)N[C@H]2Cc3ccc(F)c(C(=O)O)c3OB2O)c2cc(F)c(O)c(O)c2Cl)C1=O)Nc1ccc(O)cc1 [Example 279, (R)-3-((R)-2-(2-chloro-5-fluoro-3,4-dihydroxyphenyl)-2-(3-(2-(3-(4-hydroxyphenyl)ureido)ethyl)-2-oxoimidazolidine-1-carboxamido)acetamido)-7-fluoro-2-hydroxy-3,4-dihydro-2H-benzo[e][1,2]oxaborinine-8-carboxylic acid] | < 1 µg/mL | 1 to 2 µg/mL (≈ 1.36 to 2.73 µM) | 4 to 8 µg/mL (≈ 5.46 to 10.9 µM) |  |  |  |  |  |  |  |  |  |  |  |  |  |  |  |
| CCN1CCN(C(=O)NC(C(=O)N[C@H]2Cc3cccc(C(=O)O)c3OB2O)c2cc(P(=O)(O)O)ccc2F)C(=O)C1=O (stereo partly drawn) [Example 2, (3R)-3-(2-(4-ethyl-2,3-dioxopiperazine-1-carboxamido)-2-(2-fluoro-5-phosphonophenyl)acetamido)-2-hydroxy-3,4-dihydro-2H-benzo[e][1,2]oxaborinine-8-carboxylic acid] |  |  |  | < 10 µM | > 128 µg/mL | 32 to 64 µg/mL (≈ 52.8 to 106 µM) | < 1 µg/mL | 2 to 4 µg/mL (≈ 3.3 to 6.6 µM) | 32 to 64 µg/mL (≈ 52.8 to 106 µM) | > 128 µg/mL | 32 to 64 µg/mL (≈ 52.8 to 106 µM) | > 128 µg/mL | > 128 µg/mL | > 128 µg/mL | < 1 µg/mL | 8 to 16 µg/mL (≈ 13.2 to 26.4 µM) | 4 to 8 µg/mL (≈ 6.6 to 13.2 µM) | 4 to 8 µg/mL (≈ 6.6 to 13.2 µM) |
| CCN1CCN(C(=O)NC(C(=O)N[C@H]2Cc3cccc(C(=O)O)c3OB2O)c2ccc(P(=O)(O)O)cc2F)C(=O)C1=O (stereo partly drawn) [Example 1, (3R)-3-(2-(4-ethyl-2,3-dioxopiperazine-1-carboxamido)-2-(2-fluoro-4-phosphonophenyl)acetamido)-2-hydroxy-3,4-dihydro-2H-benzo[e][1,2]oxaborinine-8-carboxylic acid] |  |  |  | < 10 µM | > 128 µg/mL | 32 to 64 µg/mL (≈ 52.8 to 106 µM) | < 1 µg/mL | 2 to 4 µg/mL (≈ 3.3 to 6.6 µM) | 8 to 16 µg/mL (≈ 13.2 to 26.4 µM) | > 128 µg/mL | 32 to 64 µg/mL (≈ 52.8 to 106 µM) | > 128 µg/mL | > 128 µg/mL | 32 to 64 µg/mL (≈ 52.8 to 106 µM) | < 1 µg/mL | 32 to 64 µg/mL (≈ 52.8 to 106 µM) | < 1 µg/mL | < 1 µg/mL |
| CS(=O)(=O)N1CCN(C(=O)N[C@H](C(=O)N[C@H]2Cc3cccc(C(=O)O)c3OB2O)c2ccc(P(=O)(O)O)cc2)C1=O (single isomer, unassigned) [Example 5] |  |  |  | < 10 µM | > 128 µg/mL | 32 to 64 µg/mL (≈ 52.4 to 105 µM) | < 1 µg/mL | 8 to 16 µg/mL (≈ 13.1 to 26.2 µM) | 32 to 64 µg/mL (≈ 52.4 to 105 µM) | > 128 µg/mL | > 128 µg/mL | > 128 µg/mL | > 128 µg/mL | > 128 µg/mL | 8 to 16 µg/mL (≈ 13.1 to 26.2 µM) | 32 to 64 µg/mL (≈ 52.4 to 105 µM) | < 1 µg/mL | < 1 µg/mL |
| NCCN1CCN(C(=O)NC(C(=O)N[C@H]2Cc3cccc(C(=O)O)c3OB2O)c2ccc(P(=O)(O)O)cc2)C(=O)C1=O (stereo partly drawn) [Example 3, (3R)-3-(2-(4-(2-aminoethyl)-2,3-dioxopiperazine-1-carboxamido)-2-(4-phosphonophenyl)acetamido)-2-hydroxy-3,4-dihydro-2H-benzo[e][1,2]oxaborinine-8-carboxylic acid] |  |  |  | < 10 µM | 32 to 64 µg/mL (≈ 53 to 106 µM) | 32 to 64 µg/mL (≈ 53 to 106 µM) | 2 to 4 µg/mL (≈ 3.32 to 6.63 µM) | 8 to 16 µg/mL (≈ 13.3 to 26.5 µM) | 8 to 16 µg/mL (≈ 13.3 to 26.5 µM) | > 128 µg/mL | 32 to 64 µg/mL (≈ 53 to 106 µM) | > 128 µg/mL | > 128 µg/mL | 32 to 64 µg/mL (≈ 53 to 106 µM) | < 1 µg/mL | 32 to 64 µg/mL (≈ 53 to 106 µM) | < 1 µg/mL | 1 to 2 µg/mL (≈ 1.66 to 3.32 µM) |
